Laboratory results: PubChem BioAssay AID248 (DTP/NCI, 2004)
Toxic doses and inconclusive results are not listed. No stated cut-off is given here; in the data, active means T/C of 150% or more; inactive means T/C below 125%.

Test system: L1210 leukemia ip in BDF1 mice, survival T/C
Assay: NCI In Vivo Anticancer Drug Screen. Data for tumor model L1210 Leukemia (intraperitoneal) in B6D2F1 (BDF1) mice
Details: endpoint: mean survival time, higher = longer survival
How it was run: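 Survival endpoint. Drug-treated group vs vehicle group, expressed as T divided by C. Tumor passaged by transplantation.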

[1] = dose: 100.0 mg/kg/injection, schedule: Q04DX002 (ip), vehicle: saline with Tween-80
[2] = dose: 200.0 mg/kg/injection, schedule: Q04DX002 (ip), vehicle: saline with Tween-80
[3] = dose: 50.0 mg/kg/injection, schedule: Q01DX001 (ip), vehicle: Klucel (hydroxypropylcellulose) (HPC)
[4] = dose: 100.0 mg/kg/injection, schedule: Q01DX001 (ip), vehicle: Klucel (hydroxypropylcellulose) (HPC)
[5] = dose: 100.0 mg/kg/injection, schedule: Q01DX009 (ip), vehicle: Klucel (hydroxypropylcellulose) (HPC)
[6] = dose: 100.0 mg/kg/injection, schedule: Q04DX003 (ip), vehicle: Klucel (hydroxypropylcellulose) (HPC)
[7] = dose: 200.0 mg/kg/injection, schedule: Q01DX001 (ip), vehicle: Klucel (hydroxypropylcellulose) (HPC)
[8] = dose: 200.0 mg/kg/injection, schedule: Q01DX009 (ip), vehicle: Klucel (hydroxypropylcellulose) (HPC)
[9] = dose: 200.0 mg/kg/injection, schedule: Q04DX003 (ip), vehicle: Klucel (hydroxypropylcellulose) (HPC)
[10] = dose: 400.0 mg/kg/injection, schedule: Q01DX001 (ip), vehicle: Klucel (hydroxypropylcellulose) (HPC)
[11] = dose: 400.0 mg/kg/injection, schedule: Q01DX009 (ip), vehicle: Klucel (hydroxypropylcellulose) (HPC)
[12] = dose: 400.0 mg/kg/injection, schedule: Q04DX003 (ip), vehicle: Klucel (hydroxypropylcellulose) (HPC)
[13] = dose: 12.5 mg/kg/injection, schedule: Q04DX003 (ip), vehicle: saline with Tween-80
[14] = dose: 100.0 mg/kg/injection, schedule: Q01DX001 (ip), vehicle: saline with Tween-80
[15] = dose: 200.0 mg/kg/injection, schedule: Q01DX001 (ip), vehicle: saline with Tween-80

Measured: T/C

CCCCS/C=C1\CCC2(C)CCCCC2C1=O (stereo unspecified)
inactive: [1] 100 % of control | [2] 100 % of control | dose: 400.0 mg/kg/injection, schedule: Q04DX002 (ip), vehicle: saline with Tween-80 120 % of control

S=C1NC(c2ccco2)N2C(=S)NC(c3ccco3)N12 (stereo unspecified)
inactive: dose: 100.0 mg/kg/injection, schedule: Q01DX009 (ip), vehicle: gum acacia 90 % of control | dose: 100.0 mg/kg/injection, schedule: Q04DX003 (ip), vehicle: gum acacia 97 % of control | dose: 200.0 mg/kg/injection, schedule: Q01DX009 (ip), vehicle: gum acacia 95 % of control | dose: 200.0 mg/kg/injection, schedule: Q04DX003 (ip), vehicle: gum acacia 103 % of control | dose: 400.0 mg/kg/injection, schedule: Q01DX009 (ip), vehicle: gum acacia 95 % of control | dose: 400.0 mg/kg/injection, schedule: Q04DX003 (ip), vehicle: gum acacia 98 % of control

COc1ncnc2nc[nH]c12
inactive: [3] 97 % of control | [4] 103 % of control | [5] 101 % of control | [6] 97 % of control | [7] 98 % of control | [8] 102 % of control | [9] 105 % of control | [10] 101 % of control | [11] 98 % of control | [12] 106 % of control

COc1cc(Cc2c3cc4c(cc3cc[n+]2C)OCO4)c(Oc2cc(Cc3c4cc5c(cc4cc[n+]3C)OCO5)ccc2OC)cc1OC
inactive: dose: 3.12 mg/kg/injection, schedule: Q04DX003 (ip), vehicle: saline with Tween-80 97 % of control | dose: 6.25 mg/kg/injection, schedule: Q04DX003 (ip), vehicle: saline with Tween-80 95 % of control | [13] 95 % of control

O=[N+]([O-])c1ccc(N=C(Nc2ccc([N+](=O)[O-])cc2)c2ccccc2)cc1
inactive: dose: 100.0 mg/kg/injection, schedule: Q01DX009 (ip), vehicle: other 92 % of control | dose: 100.0 mg/kg/injection, schedule: Q04DX003 (ip), vehicle: other 96 % of control | dose: 200.0 mg/kg/injection, schedule: Q01DX009 (ip), vehicle: other 101 % of control | dose: 200.0 mg/kg/injection, schedule: Q04DX003 (ip), vehicle: other 102 % of control | dose: 400.0 mg/kg/injection, schedule: Q01DX009 (ip), vehicle: other 97 % of control | dose: 400.0 mg/kg/injection, schedule: Q04DX003 (ip), vehicle: other 91 % of control

O=C(O)C(C(=O)c1cccc([N+](=O)[O-])c1)C(=O)c1cccc([N+](=O)[O-])c1
inactive: dose: 200.0 mg/kg/injection, schedule: Q01DX001 (ip), vehicle: carboxymethylcellulose (CMC) 100 % of control | dose: 400.0 mg/kg/injection, schedule: Q01DX001 (ip), vehicle: carboxymethylcellulose (CMC) 94 % of control

Nc1ncnc(N)c1NC(=O)/C=C/c1ccccc1
inactive: [14] 116 % of control | [15] 101 % of control

[NH-]C(CC(N)=O)C(=O)O.[NH-]C(CC(N)=O)C(=O)O.[Pd+2] (stereo unspecified)
inactive: dose: 50.0 mg/kg/injection, schedule: Q01DX009 (ip), vehicle: saline with Tween-80 93 % of control | dose: 100.0 mg/kg/injection, schedule: Q01DX009 (ip), vehicle: saline with Tween-80 101 % of control | [1] 93 % of control | dose: 200.0 mg/kg/injection, schedule: Q01DX009 (ip), vehicle: saline with Tween-80 108 % of control | [2] 97 % of control

CCOC(=O)NNC(=O)c1ccccc1
inactive: dose: 12.5 mg/kg/injection, schedule: Q01DX009 (ip), vehicle: alcohol 100 % of control | dose: 25.0 mg/kg/injection, schedule: Q01DX009 (ip), vehicle: alcohol 90 % of control | dose: 25.0 mg/kg/injection, schedule: Q04DX003 (ip), vehicle: alcohol 103 % of control | dose: 50.0 mg/kg/injection, schedule: Q01DX009 (ip), vehicle: alcohol 89 % of control | dose: 50.0 mg/kg/injection, schedule: Q04DX003 (ip), vehicle: alcohol 101 % of control

CCCC(C)CC(=O)CC(C)=O (stereo unspecified)
inactive: [14] 93 % of control | [15] 95 % of control | dose: 400.0 mg/kg/injection, schedule: Q01DX001 (ip), vehicle: saline with Tween-80 95 % of control

CCOC(=O)/C(C#N)=C\c1ccc(N(CC)CC)cc1
inactive: [4] 91 % of control | [7] 86 % of control | [10] 89 % of control

CN(CCN(C)S(=O)(=O)c1ccccc1)S(=O)(=O)c1ccccc1
inactive: dose: 75.0 mg/kg/injection, schedule: Q01DX009 (ip), vehicle: Klucel (hydroxypropylcellulose) (HPC) 94 % of control | dose: 150.0 mg/kg/injection, schedule: Q01DX009 (ip), vehicle: Klucel (hydroxypropylcellulose) (HPC) 107 % of control | dose: 300.0 mg/kg/injection, schedule: Q01DX009 (ip), vehicle: Klucel (hydroxypropylcellulose) (HPC) 95 % of control

[N-]=Cc1c(O)cccc1[N+](=O)[O-].[N-]=Cc1cc([N+](=O)[O-])ccc1O.[Ni+2]
inactive: [13] 95 % of control | dose: 25.0 mg/kg/injection, schedule: Q04DX003 (ip), vehicle: saline with Tween-80 98 % of control | dose: 50.0 mg/kg/injection, schedule: Q04DX003 (ip), vehicle: saline with Tween-80 95 % of control | dose: 100.0 mg/kg/injection, schedule: Q04DX003 (ip), vehicle: saline with Tween-80 92 % of control | dose: 200.0 mg/kg/injection, schedule: Q04DX003 (ip), vehicle: saline with Tween-80 86 % of control

COc1ccc(S(=O)(=O)NC(=O)NC(=O)CC=C(C)C)cc1
inactive: dose: 50.0 mg/kg/injection, schedule: Q04DX002 (ip), vehicle: Klucel (hydroxypropylcellulose) (HPC) 103 % of control | [5] 105 % of control | dose: 100.0 mg/kg/injection, schedule: Q04DX002 (ip), vehicle: Klucel (hydroxypropylcellulose) (HPC) 96 % of control | [6] 110 % of control | [8] 95 % of control | dose: 200.0 mg/kg/injection, schedule: Q04DX002 (ip), vehicle: Klucel (hydroxypropylcellulose) (HPC) 103 % of control | [9] 98 % of control | [11] 97 % of control | [12] 104 % of control

Nc1nc(N)c(-c2ccc(Cl)c(Cl)c2)c(COc2ccc(CCNS(=O)(=O)c3ccc(S(=O)(=O)F)cc3)cc2)n1
inactive: dose: 25.0 mg/kg/injection, schedule: Q01DX001 (ip), vehicle: Klucel (hydroxypropylcellulose) (HPC) 96 % of control | [3] 102 % of control | [4] 96 % of control
